This note sets out measurements from PMC5040747, “Preparation and Evaluation of a Novel Class of Amphiphilic Amines as Antitumor Agents and Nanocarriers for Bioactive Molecules” (Pharmaceutical Research, 2016).

In series [1] the test system is SH-SY5Y, A673 and 143.98.2 cells. Nature of the series: Annexin V-FITC/7AAD flow cytometry (apoptosis). Format: cell-based, human. The note with it: 5 μM RC16, 24 h, all cell lines. On the procedure:
SH-SY5Y, A673 and 143.98.2 cells were stained with Annexin V-FITC/7AAD according to the manufacturer’s instructions (Biosciences). Briefly, adherent cells were seeded in 6 multi wells at a concentration of 4.5 × 10^5 cells/well and after 24 h treated with 5 μM RC16 for15 h and 24 h. At the end of the treatment the cells were detached, washed twice with cold PBS and then suspended in annexin binding buffer containing 5 μl of Annexin V-FITC and 5 μl of 7AAD. The samples were gently vortexed and incubated 15 min at 25°C in the dark. Finally, 400 ul binding buffer were added to each tube and the samples were analyzed by BD LSR II (Biosciences). The analysis was performed by FlowJo software version 10.0.5.

Series [2] concerns Human Foreskin Keratinocytes (differentiated). Nature of the series: MTT cell proliferation assay, normal keratinocytes. The note with it: Keratinocyte, normal cells, read-out: Cell killing activity IC50. Format: cell-based. The protocol: (§1) Cells were plated in 96-well tissue culture plates at a density of 1 × 10^3 cells/well, allowed to attach 24 h, and then left untreated or treated with growth medium containing different concentrations of the tested RCn compounds previously dissolved in PBS. After different time periods the cell vitality was determined by MTT assay according to the manufacture’s instruction (Promega). Results are reported as the micromolar concentration of RCn reducing cell survival to 50% (IC50).

Another series deals with A673. Put plainly: MTT cell proliferation assay, A673. The note with it: Homo sapiens, A673, Ewing's Sarcoma, read-out: Cell killing activity IC50. Format: cell-based. On the procedure: as §1
The nature of the next series: Micelle size by TEM. Format: physicochemical. To be noted: RC16 micelles self-assembled in water. On the procedure: TEM studies were carried out on SH-SY5Y cells and HFs incubated with 5 μM RC16 for 24 h. Cells were seeded on cover glasses for 24 h and then the medium was replaced with a fresh one containing 5 μM RC16 for 24 h. At the end of the treatment the samples were washed with PBS and fixed with 2.5% glutaraldehyde in 0.1 M phosphate buffer for 2 h at 4°C and subsequently post-fixed with 1% OsO4 in 0.1 M phosphate buffer for 1 h at room temperature. After several washes the samples were dehydrated in an acetone series (70, 90, 100%) and embedded in Epon resin (Fluka, Sigma-Aldrich). Thin sections were collected on nickel grids, stained with uranyl acetate and lead citrate, and observed under a TEM (Philips CM10; FEI). Images were recorded using a Megaview III digital camera (FEI). […] To this purpose an aqueous solution of RC16 (20 μM) was stained with 2% (w/v) phosphotungstic acid for 3 min on a copper grid and subsequently it was visualized under TEM.

In series [3] the test system is adult tumor cell lines (A549, MDA-MB-231, WiDr). Nature of the series: MTT cell killing, adult tumor cell lines (summary). Format: cell-based. To be noted: Homo sapiens, summary of Table II. The protocol:
as §1

Series [4] concerns Human Gingival Fibroblasts. Nature of the series: MTT cell proliferation assay, normal fibroblasts. Format: cell-based. To be noted: Fibroblast, normal cells, read-out: Cell killing activity IC50. The protocol: as §1

Read-outs that look alike come from different tables or passages of the source.

Take `CCCCCCCCCCCCCCC1CN2CCCN3CCCCCC132` (stereo not drawn) [RC16, 2-tetradecyl-4,8-diazatricyclo[6.5.0.0^1,^4]tridecane]: the “Apoptosis (sum of LR and UR quadrants)” value in series [1] is given as “approximately 100%”. For the same compound, the IC50 in series [2] (24 h) is 15.2 µM; in series [2] (48 h), 13.5 µM; with A673 (24 h) it was 0.8 µM; in the series on A673 (48 h), 0.65 µM; in series [3] it was 1 to 10 µM; in series [4] (24 h), 11.8 µM. Moreover, the IC50 in series [4] (48 h) was determined as 10.5 µM. For the same compound, the Micelle mean diameter in “Micelle size by TEM” was 20–30 nm.
